Legend:
Assay type in all cases: in vivo
[1] = tested on: SETFA: giant foxtail (Setaria faberi); assay: Pre-emergent Test I herbicidal activity; conditions: pre-emergence, 336 h, read-out: Visual Growth Reduction (%) 14 Days After Application, SETFA; for pest or weed control at 4000 g/ha: 4 kg ai/ha; for pest or weed control at 4040 g/ha: 4.04 kg ai/ha
Procedure: (§1) Pre-emergent Test I Seeds of test species were planted into round plastic pots (5-inch diameter) containing sandy loam soil. After planting, all pots were sub-irrigated 16 h prior to compound application. Compounds were dissolved in a 97:3 v/v (volume/volume) mixture of acetone and dimethyl sulfoxide (DMSO) and diluted to the appropriate concentration in a final application solution containing water, acetone, isopropanol, DMSO and Agri-dex (crop oil concentrate) in a 59:23:15:1.0:1.5 v/v ratio and 0.02% w/v (weight/volume) of Triton X-155 to obtain the spray solution containing the highest application rate. Additional application rates were obtained by serial dilution of the high rate solution with the above application solution. Formulated compound (2.7 mL) was applied pipetted evenly over the soil surface followed by incorporation with water (15 mL). Following treatment, pots were returned to the greenhouse for the duration of the experiment. The greenhouse was programmed for an approximate 15 h photoperiod which was maintained at about 23-29° C. during the day and 22-28° C. during the night. Nutrients and water were added on a regular basis through surface irrigation and supplemental lighting was provided with overhead metal halide 1000-Watt lamps as necessary. Herbicidal effect ratings were obtained 14 days after treatment. All evaluations were made relative to appropriate controls on a scale of 0 to 100 where 0 represents no herbicidal effect and 100 represents plant death or lack of emergence from the soil.

[2] = tested on: IPOHE: ivyleaf morningglory (Ipomoea hederecea); assay: Pre-emergent Test I herbicidal activity; conditions: pre-emergence, 336 h, read-out: Visual Growth Reduction (%) 14 Days After Application, IPOHE; for pest or weed control at 4000 g/ha: 4 kg ai/ha; for pest or weed control at 4040 g/ha: 4.04 kg ai/ha
Procedure: as §1

[3] = tested on: HELAN: sunflower (Helianthus annuus); assay: Pre-emergent Test I herbicidal activity; conditions: pre-emergence, 336 h, read-out: Visual Growth Reduction (%) 14 Days After Application, HELAN; for pest or weed control at 4000 g/ha: 4 kg ai/ha; for pest or weed control at 4040 g/ha: 4.04 kg ai/ha
Procedure: as §1

[4] = tested on: ECHCG: barnyardgrass (Echinochloa crus-galli); assay: Pre-emergent Test I herbicidal activity; conditions: pre-emergence, 336 h, read-out: Visual Growth Reduction (%) 14 Days After Application, ECHCG; for pest or weed control at 4000 g/ha: 4 kg ai/ha; for pest or weed control at 4040 g/ha: 4.04 kg ai/ha
Procedure: as §1

[5] = tested on: SETFA: giant foxtail (Setaria faberi); assay: Post-emergent Test I herbicidal activity; conditions: post-emergence, 336 h, read-out: Visual Growth Reduction (%) 14 Days After Application, SETFA; for pest or weed control at 4000 g/ha: 4 kg ai/ha; for pest or weed control at 4040 g/ha: 4.04 kg ai/ha
Procedure: (§2) Post-emergent Test I Seeds test species were obtained from commercial suppliers and planted into a 13 cm diameter-round pot containing soil-less media mix (metro-mix 360®, Sun Gro Horticulture). Postemergence treatments were planted 8-12 days prior to application and cultured in a greenhouse equipped with supplemental light sources to provide a 16 h photoperiod at 24-29° C. All pots were surface irrigated.
(§3) A weighted amount, determined by the highest rate to be tested, of each compound was dissolved in 1.3 mL acetone-DMSO (97:3, v/v) and diluted with 4.1 mL water-isopropanol-crop oil concentrate (78:20:2, v/v/v) containing 0.02% Triton X-155 to obtain concentrated stock solutions. Additional application rates were obtained by serial dilution of the high rate solution into a solution containing appropriate volume of 97:3 v/v mixture of acetone and DMSO and appropriate volume of an aqueous mixture of water, isopropyl alcohol, crop oil concentrate (78:20:2, v/v/v) containing 0.02% Triton X-155.
(§4) Formulated compounds were applied using a DeVilbiss® compressed air sprayer at 2-4 psi. Following treatment, pots were returned to the greenhouse for the duration of the experiment. All pots were sub-irrigated as need to provide optimum growing conditions. All pots were fertilized one time per week by subirrigating with Peters Peat-Lite Special® fertilizer (20-10-20).
(§5) […] All evaluations were made visually on a scale of 0 to 100 where 0 represents no activity and 100 represents complete plant death. Visual assessments of plant injury were made based on growth reduction, discoloration, leaf deformity and necrosis.

[6] = tested on: IPOHE: ivyleaf morningglory (Ipomoea hederecea); assay: Post-emergent Test I herbicidal activity; conditions: post-emergence, 336 h, read-out: Visual Growth Reduction (%) 14 Days After Application, IPOHE; for pest or weed control at 4000 g/ha: 4 kg ai/ha; for pest or weed control at 4040 g/ha: 4.04 kg ai/ha
Procedure: as §2, §3, §4, §5

[7] = tested on: HELAN: sunflower (Helianthus annuus); assay: Post-emergent Test I herbicidal activity; conditions: post-emergence, 336 h, read-out: Visual Growth Reduction (%) 14 Days After Application, HELAN; for pest or weed control at 4000 g/ha: 4 kg ai/ha; for pest or weed control at 4040 g/ha: 4.04 kg ai/ha
Procedure: as §2, §3, §4, §5

[8] = tested on: ECHCG: barnyardgrass (Echinochloa crus-galli); assay: Post-emergent Test I herbicidal activity; conditions: post-emergence, 336 h, read-out: Visual Growth Reduction (%) 14 Days After Application, ECHCG; for pest or weed control at 4000 g/ha: 4 kg ai/ha; for pest or weed control at 4040 g/ha: 4.04 kg ai/ha
Procedure: as §2, §3, §4, §5

[9] = tested on: AMARE: redroot pigwseed (Amaranthus retroflexus); assay: Post-emergent Test I herbicidal activity; conditions: post-emergence, read-out: Visual Growth Reduction (%), AMARE
Procedure: as §2, §3, §4, §5

[10] = tested on: AVEFA: wild oats (Avena fatua); assay: Pre-emergent Test I herbicidal activity; conditions: pre-emergence, 336 h, read-out: Visual Growth Reduction (%) 14 Days After Application, AVEFA; for pest or weed control at 4000 g/ha: 4 kg ai/ha
Procedure: as §1

[11] = tested on: AVEFA: wild oats (Avena fatua); assay: Post-emergent Test I herbicidal activity; conditions: post-emergence, 336 h, read-out: Visual Growth Reduction (%) 14 Days After Application, AVEFA; for pest or weed control at 4000 g/ha: 4 kg ai/ha
Procedure: as §2, §3, §4, §5

[12] = tested on: AMARE: redroot pigwseed (Amaranthus retroflexus); assay: Pre-emergent Test I herbicidal activity; conditions: pre-emergence, 336 h, 2 kg ai/ha, read-out: Visual Growth Reduction (%) 14 Days After Application, AMARE
Procedure: as §1

COC(=O)c1nc(-c2cccc(F)c2F)c(F)c(N)c1Cl [Compound 199]
pest or weed control at 4000 g/ha [1]: 45 to 59% | pest or weed control at 4000 g/ha [2]: 75 to 84% | pest or weed control at 4000 g/ha [3]: 60 to 74% | pest or weed control at 4000 g/ha [4]: 0 to 29% | pest or weed control at 4000 g/ha [5]: 85 to 94% | pest or weed control at 4000 g/ha [6]: 75 to 84% | pest or weed control at 4000 g/ha [7]: 95 to 100% | pest or weed control at 4000 g/ha [8]: 60 to 74% | pest or weed control at 4000 g/ha ([9]; 4 kg ai/ha): 95 to 100%

C=Cc1c(C(=O)O)nc(-c2ccc(Cl)c(F)c2)c(F)c1N [Compound 214]
pest or weed control at 4040 g/ha ([10]; 4.04 kg ai/ha): 85 to 94% | pest or weed control at 4040 g/ha [1]: 95 to 100% | pest or weed control at 4040 g/ha [2]: 95 to 100% | pest or weed control at 4040 g/ha [3]: 95 to 100% | pest or weed control at 4040 g/ha [4]: 95 to 100% | pest or weed control at 4040 g/ha ([11]; 4.04 kg ai/ha): 60 to 74% | pest or weed control at 4040 g/ha [5]: 85 to 94% | pest or weed control at 4040 g/ha [6]: 95 to 100% | pest or weed control at 4040 g/ha [7]: 95 to 100% | pest or weed control at 4040 g/ha [8]: 95 to 100%

Nc1c(F)c(-c2ccc(Br)c(F)c2F)nc(C(=O)O)c1Cl [Compound 147]
pest or weed control at 3960 g/ha ([10]; 3.96 kg ai/ha): 95 to 100% | pest or weed control at 3960 g/ha ([1]; 3.96 kg ai/ha): 95 to 100% | pest or weed control at 3960 g/ha ([2]; 3.96 kg ai/ha): 95 to 100% | pest or weed control at 3960 g/ha ([3]; 3.96 kg ai/ha): 95 to 100% | pest or weed control at 3960 g/ha ([4]; 3.96 kg ai/ha): 95 to 100% | pest or weed control at 3960 g/ha ([11]; 3.96 kg ai/ha): 75 to 84% | pest or weed control at 3960 g/ha ([5]; 3.96 kg ai/ha): 95 to 100% | pest or weed control at 3960 g/ha ([6]; 3.96 kg ai/ha): 95 to 100% | pest or weed control at 3960 g/ha ([7]; 3.96 kg ai/ha): 95 to 100% | pest or weed control at 3960 g/ha ([8]; 3.96 kg ai/ha): 95 to 100% | pest or weed control at 3960 g/ha ([9]; 3.96 kg ai/ha): 95 to 100%

COC(=O)c1nc(-c2ccc(Br)c(F)c2F)c(F)c(N)c1Cl [Compound 109, methyl 4-amino-6-(4-bromo-2,3-difluorophenyl)-3-chloro-5-fluoropicolinate]
pest or weed control at 4000 g/ha [10]: 85 to 94% | pest or weed control at 4000 g/ha [1]: 95 to 100% | pest or weed control at 4000 g/ha [2]: 95 to 100% | pest or weed control at 4000 g/ha [3]: 75 to 84% | pest or weed control at 4000 g/ha [4]: 95 to 100% | pest or weed control at 4000 g/ha [11]: 75 to 84% | pest or weed control at 4000 g/ha [5]: 95 to 100% | pest or weed control at 4000 g/ha [6]: 85 to 94% | pest or weed control at 4000 g/ha [7]: 95 to 100% | pest or weed control at 4000 g/ha [8]: 95 to 100%

Nc1c(F)c(-c2ccc(Br)cc2)nc(C(=O)O)c1Cl [Compound 20]
pest or weed control at 4000 g/ha [10]: 95 to 100% | pest or weed control at 4000 g/ha [1]: 95 to 100% | pest or weed control at 4000 g/ha [2]: 95 to 100% | pest or weed control at 4000 g/ha [3]: 95 to 100% | pest or weed control at 4000 g/ha [4]: 95 to 100% | pest or weed control at 4000 g/ha [11]: 75 to 84% | pest or weed control at 4000 g/ha [5]: 95 to 100% | pest or weed control at 4000 g/ha [6]: 85 to 94% | pest or weed control at 4000 g/ha [7]: 95 to 100% | pest or weed control at 4000 g/ha [8]: 95 to 100%

COC(=O)c1nc(-c2ccccc2F)c(F)c(N)c1Cl [Compound 206]
pest or weed control at 4040 g/ha [1]: 75 to 84% | pest or weed control at 4040 g/ha [2]: 95 to 100% | pest or weed control at 4040 g/ha [3]: 95 to 100% | pest or weed control at 4040 g/ha [4]: 0 to 29% | pest or weed control at 4040 g/ha [5]: 0 to 29% | pest or weed control at 4040 g/ha [6]: 75 to 84% | pest or weed control at 4040 g/ha [7]: 95 to 100% | pest or weed control at 4040 g/ha [8]: 0 to 29% | pest or weed control at 4040 g/ha ([9]; 4.04 kg ai/ha): 95 to 100%

N#Cc1ccc(-c2nc(C(=O)O)c(Cl)c(N)c2F)cc1 [Compound 39]
pest or weed control at 2000 g/ha ([10]; 2 kg ai/ha): 85 to 94% | pest or weed control at 2000 g/ha ([2]; 2 kg ai/ha): 95 to 100% | pest or weed control at 2000 g/ha ([3]; 2 kg ai/ha): 95 to 100% | pest or weed control at 2000 g/ha ([4]; 2 kg ai/ha): 95 to 100% | pest or weed control at 2000 g/ha [12]: 95 to 100% | pest or weed control at 2000 g/ha ([11]; 2 kg ai/ha): 75 to 84% | pest or weed control at 2000 g/ha ([6]; 2 kg ai/ha): 60 to 74% | pest or weed control at 2000 g/ha ([7]; 2 kg ai/ha): 95 to 100% | pest or weed control at 2000 g/ha ([8]; 2 kg ai/ha): 85 to 94% | pest or weed control at 2000 g/ha ([9]; 2 kg ai/ha): 95 to 100%
